Assay [1] relates to Streptozotocin induced diabetic mice. As to the kind of experiment: Antidiabetic activity in streptozotocin induced diabetic mice. It is filed as in vivo, Swiss albino mice. To be noted: plasma, 50 mg/kg oral for 7 days, female mice, vs control group. The protocol:
Antidiabetic Activity in Streptozotocin Induced Diabetic Mice
Female Swiss albino mice, at the age of 10 weeks were used in the study. Diabetes was induced in the animals by injecting streptozotocin by i.p. route at a dose of 200-mg/kg-body weight. 48 hours after streptozotocin administration, the animals were kept fasting for 6 hours. Subsequently blood was collected, plasma separated and the glucose was estimated. Animals showing greater than 200 mg/dl glucose levels were considered as diabetic and these animals were randomly distributed into various groups. The compounds 2 listed in the table 3 were administered at a dose of 50-mg/kg body weight by oral route for 7 days. Later the animals were fasted for 6 hours, the blood was collected and the plasma was separated. Biochemical estimations like glucose, cholesterol and triglycerides were carried out using the plasma. The effect of the compounds mentioned in the table was expressed in terms of percentage reduction in biochemical values as compared to the control group.

The target in another assay is T1, DPP IV (Homo sapiens, UniProt P27487).
T1 construct: using human plasma as a source of DPP IV; from tissue; host or cells: human plasma
T1 sequence (P27487 39-766 limits assumed): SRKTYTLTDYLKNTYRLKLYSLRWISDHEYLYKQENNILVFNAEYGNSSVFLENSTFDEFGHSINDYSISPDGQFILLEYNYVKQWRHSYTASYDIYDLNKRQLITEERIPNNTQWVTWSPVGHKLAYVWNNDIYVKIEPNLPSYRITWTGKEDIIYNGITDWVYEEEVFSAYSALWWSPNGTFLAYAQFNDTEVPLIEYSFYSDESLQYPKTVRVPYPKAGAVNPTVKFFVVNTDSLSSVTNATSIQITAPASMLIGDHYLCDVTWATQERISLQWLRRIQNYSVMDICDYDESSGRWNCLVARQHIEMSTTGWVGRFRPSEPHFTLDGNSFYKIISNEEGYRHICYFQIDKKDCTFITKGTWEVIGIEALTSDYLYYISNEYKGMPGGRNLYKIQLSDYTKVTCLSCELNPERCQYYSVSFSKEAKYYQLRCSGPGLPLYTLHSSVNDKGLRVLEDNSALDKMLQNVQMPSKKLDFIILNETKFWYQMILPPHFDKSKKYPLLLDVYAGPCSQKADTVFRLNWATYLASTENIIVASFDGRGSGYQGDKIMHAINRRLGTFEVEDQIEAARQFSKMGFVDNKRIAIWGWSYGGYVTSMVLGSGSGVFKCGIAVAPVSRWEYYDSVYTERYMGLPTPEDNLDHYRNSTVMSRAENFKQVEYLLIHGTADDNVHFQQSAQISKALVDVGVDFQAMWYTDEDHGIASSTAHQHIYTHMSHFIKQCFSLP
As to the kind of experiment: DPP IV assay with human plasma as source of DPP IV. It is filed as biochemical. To be noted: 1 hr incubation, substrate H-gly-pro AMC, vs vehicle control. The protocol:
DPP IV assay is carried by using human plasma as a source of DPP IV. The compounds were incubated at a concentration of 1 and 10 μM in an assay buffer containing the DPP IV enzyme for 1 hr, and then the substrate H-gly-pro AMC was added and further incubated for 20 minutes. Subsequently the reaction was stopped on addition of 25% glacial acetic acid. The plates were read in a spectrofluorimeter to get RFU on setting the excitation wavelength of 360 nm and emission wavelength of 460 nm. The percentage inhibition is calculated as compared to the vehicle control.

The source of these data is US20080267888A1, “Heterocyclic Derivatives” (priority 2005, published 2008).

Broadly, the inhibition is the share of the control response that was lost under treatment. Low values mean a response near the control, high ones a response far below the control.

Molecules are shown by their SMILES.

With `O=C1COCC(Cc2ccc(Oc3ccc(/C=C4\SC(=O)NC4=O)cc3)cc2)N1` (stereo not shown) [Example 1, 5-[4-(4-{[5-oxomorpholin-3-yl]methyl}phenoxy)benzylidene]-1,3-thiazolidine-2,4-dione], the “% Reduction Glucose” value in assay [1] amounted to 41.6%.

In the case of `O=C1COCC(Cc2ccc(Oc3ccc(/C=C4\SC(=S)NC4=O)cc3)cc2)N1` (stereo not shown) [Example 2, 5-(4-{4-[(4-oxo-2-thioxo-1,3-thiazolidin-5-ylidene)methyl]phenoxy}benzyl)morpholin-3-one], in assay [1], the “% Reduction Glucose” value is listed as 42.6% and the “% Reduction Triglyceride” value is recorded as 44.4%.

For the compound `O=C1COCC(Cc2ccc(Oc3ccc(/C=C4\SC(=O)NC4=O)cc3Cl)cc2)N1` (stereo not shown) [Example 7, 5-(3-chloro-4-{4-[(5-oxomorpholin-3-yl)methyl]phenoxy}benzylidene)-1,3-thiazolidine-2,4-dione], in assay [1], the “% Reduction Glucose” value is listed as 44.5% and the “% Reduction Triglyceride” value was determined as 60.9%.

As to `O=C1COCC(Cc2ccc(Oc3ccc(/C=C4/C(=O)Nc5ccccc54)cc3Cl)cc2)N1` (stereo not shown) [Example 9], at DPP IV, the inhibition at 1 µM was found to be 6.3% and testing at 10 µM gave an inhibition of 7.5%.

Take `O=C1COCC(Cc2ccc(Oc3ccc(/C=C4/C(=O)Nc5ccccc54)cc3F)cc2)N1` (stereo not shown) [Example 15]: at DPP IV, the inhibition at 1 µM was 12.1% and the inhibition at 10 µM is 9.1%.

On DPP IV, `O=C1COCC(Cc2ccc(Oc3ccc(/C=C4\SC(=S)NC4=O)cc3C(F)(F)F)cc2)N1` (stereo not shown) [Example 18, 5-(4-{4-[(4-oxo-2-thioxo-1,3-thiazolidin-5-ylidene)methyl]-2-(trifluoromethyl)phenoxy}benzyl)morpholin-3-one] came in with an inhibition at 1 µM of 7.3% and an inhibition at 10 µM of 11.8%.

For `CN1C(=O)COCC1Cc1ccc(Oc2ccc(/C=C3\SC(=O)NC3=O)cc2)cc1` (stereo not shown) [Example 19, 5-(4-{4-[(4-methyl-5-oxomorpholin-3-yl)methyl]phenoxy}benzylidene)-1,3-thiazolidine-2,4-dione], at DPP IV, the inhibition at 1 µM is 8.9% and the inhibition at 10 µM was found to be 15.2%.
